From US4952678A, “Trisazo dyes” (BASF Aktiengesellschaft, priority 1986, dated 1990)

Key:
Assay type in all cases: physicochemical
[1] = order parameter S in liquid crystal ZLI 2452 (dichroic ratio by polarized absorbance); details: room temperature, in ZLI 2452
Experimental: The order parameter S was determined in accordance with the known equation [formula] in a commercial measurement cell of homogeneous edge orientation (polyimide). The dichroic ratio CR was determined by measuring the absorbences E^.parallel. (measurement with light polarized parallel to the preferential direction of the nematic phase) and E^.perp. (measurement with light polarized perpendicular to the preferential direction of the nematic phase) and applying the relationship [formula] the dye concentration being so chosen as to give an E^.parallel. within the range from 1 to 2. The measurements were carried out on an Hitachi U 3200 spectrophotometer.

[2] = solubility in liquid crystal ZLI 2452 (saturated solution, comparison of absorbances); details: room temperature, in ZLI 2452
Experimental: The solubility was determined as follows:
50 mg of the dye was stirred at room temperature into 1 ml of liquid crystal for 1 week, the saturated solution was centrifuged off the residue, and the solubility was determined by comparing the absorbences.

[3] = absorption maximum in methylene chloride

Row | Structure (SMILES) | Order parameter S (at RT) [1] | Solubility L [%] (at RT) [2] | λmax [nm] (CH2 Cl2) [3]
1 | CCCCC(CC)COc1ccc(N=Nc2ccc(N=Nc3ccc(N=Nc4ccc(OCc5ccccc5)cc4C)cc3)cc2)c(CC)c1 (stereo not drawn) [Example 1] | 0.815 | 18.7 | 417
2 | CCCCCCCCOc1ccc(N=Nc2ccc(N=Nc3ccc(N=Nc4ccc(OCc5ccc(CCCCC)cc5)cc4C)cc3)cc2)c(CC)c1 [Example 2] | 0.83 | 5.1 | 418
3 | CCCCCCCCOc1ccc(N=Nc2ccc(N=Nc3ccc(N=Nc4ccc(OCc5ccc(CCCCC)cc5)cc4CC)cc3)cc2)c(C)c1 [Example 3] | 0.82 | 5.3 | 418
4 | CCCCCCCCOc1ccc(N=Nc2ccc(N=Nc3ccc(N=Nc4ccc(OCc5ccccc5)cc4CC)cc3)cc2)c(CC)c1 [Example 4] | 0.79 | 6.4 | 419
5 | CCCCCCCCOc1ccc(N=Nc2ccc(N=Nc3ccc(N=Nc4ccc(OCc5ccc(OCCCCC)cc5)cc4CC)cc3)cc2)c(CC)c1 [Example 5] | 0.79 | 3.5 | 418
6 | CCCCC(CC)COc1ccc(N=Nc2ccc(N=Nc3ccc(N=Nc4ccc(OCc5ccccc5)c5ccccc45)cc3)cc2)c(CC)c1 (stereo not drawn) [Example 9] | 0.81 | 2.0 | 443
7 | CCCCC(CC)COc1ccc(N=Nc2ccc(N=Nc3ccc(N=Nc4ccc(OCc5ccccc5)cc4CC)cc3)cc2)c2ccccc12 (stereo not drawn) [Example 10] | 0.81 | 7.1 | 445
8 | CCCCCCCCOc1ccc(N=Nc2ccc(N=Nc3ccc(N=Nc4ccc(OCc5ccc(OCCCCC)cc5)c5ccccc45)cc3)cc2)c(CC)c1 [Example 11] | 0.79 | 3.4 | 437
9 | CCCCCCCCOc1ccc(N=Nc2ccc(N=Nc3ccc(N=Nc4ccc(OCc5ccc(CCCCC)cc5)c5ccccc45)cc3)cc2)c(CC)c1 [Example 12] | 0.79 | 2.4 | 441
10 | CCCCCOc1ccc(COc2ccc(N=Nc3ccc(N=Nc4ccc(N=Nc5ccc(OCC(CC)CCCC)cc5CC)cc4)cc3)c3ccccc23)cc1 (stereo not drawn) [Example 13] | 0.79 | 2.9 | 435
11 | CCCCCc1ccc(COc2ccc(N=Nc3ccc(N=Nc4ccc(N=Nc5ccc(OCC(CC)CCCC)cc5CC)cc4)cc3)c3ccccc23)cc1 (stereo not drawn) [Example 14] | 0.81 | 5.0 | 443
12 | CCCCCCCCCCCCNc1ccc(N=Nc2ccc(N=Nc3ccc(N=Nc4ccc(OCCCCCCCC)cc4CC)cc3)cc2)c2ccccc12 [Example 15] | 0.81 | 2.0 | 535
13 | CCCCCCCCCCCCNc1ccc(N=Nc2ccc(N=Nc3ccc(N=Nc4ccc(OCC(CC)CCCC)cc4CC)cc3)cc2)c2ccccc12 (stereo not drawn) [Example 16] | 0.80 | 8.0 | 533
14 | CCCCC(CC)COc1ccc(N=Nc2ccc(N=Nc3ccc(N=Nc4ccc(OCc5ccccc5)c5ccccc45)cc3)c3ccccc23)c(CC)c1 (stereo not drawn) [Example 19] | 0.79 | 1.6 | 486
15 | CCCCC(CC)COc1ccc(N=Nc2ccc(N=Nc3ccc(N=Nc4ccc(OCc5ccccc5)cc4CC)c4ccccc34)cc2)c2ccccc12 (stereo not drawn) [Example 20] | 0.80 | 1.3 | 489
16 | CCCCC(CC)COc1ccc(N=Nc2ccc(N=Nc3ccc(N=Nc4ccc(OCc5ccccc5)cc4CC)c(OC)c3)cc2)c2ccccc12 (stereo not drawn) [Example 21] | 0.79 | 5.5 | 459
